Laboratory results taken from publication PMC5356633, “Arctigenin functions as a selective agonist of estrogen receptor β to restrict mTORC1 activation and consequent Th17 differentiation” (Oncotarget, 2016).

Molecular target: T1, ERβ (estrogen receptor β) (Homo sapiens, UniProt Q92731)
T1 construct: gene ESR2; full-length ERβ
Experiment: fluorescence polarization competition binding (PolarScreen ERβ Competitor Assay, Fluormone Tracer)

T1 sequence (Q92731 whole entry): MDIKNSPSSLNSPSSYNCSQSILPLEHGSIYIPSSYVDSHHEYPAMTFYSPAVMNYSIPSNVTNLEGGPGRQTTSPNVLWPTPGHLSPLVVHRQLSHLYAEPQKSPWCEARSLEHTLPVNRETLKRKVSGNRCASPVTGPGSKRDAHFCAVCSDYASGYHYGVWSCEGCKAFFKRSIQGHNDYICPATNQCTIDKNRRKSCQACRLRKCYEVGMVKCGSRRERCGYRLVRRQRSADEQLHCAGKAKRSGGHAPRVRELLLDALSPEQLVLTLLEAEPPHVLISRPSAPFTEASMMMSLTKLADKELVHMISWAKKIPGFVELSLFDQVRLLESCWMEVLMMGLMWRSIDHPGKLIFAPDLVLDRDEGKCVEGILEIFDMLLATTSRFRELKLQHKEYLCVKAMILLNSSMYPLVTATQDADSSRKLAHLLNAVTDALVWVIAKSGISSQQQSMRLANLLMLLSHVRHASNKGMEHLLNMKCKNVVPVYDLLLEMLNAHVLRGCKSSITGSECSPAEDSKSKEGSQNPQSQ

COc1cc(C[C@H]2C(=O)OC[C@@H]2Cc2ccc(OC)c(OC)c2)ccc1O [ARCG, arctigenin]
IC50: 3.29 µM
